Data: patent EP1007066B1, “SCREENING METHODS FOR GLUCOCORTICOID RECEPTOR BINDING SUBSTANCES USING TRYPTERYGIUM WILFORDII PREPARATIONS” (priority 1996, dated 1998)
≈ marks a conversion by molar mass, not a printed value.

Columns and labels:
[1] = target: T1, human GR (Homo sapiens, UniProt P04150); assay: GR mediated gene activation, MMTV-luciferase in COS-7 cells, with dexamethasone; assay type: cell-based; conditions: for GR-mediated activation of target gene (MMTV-luciferase): dexamethasone-induced
T1 construct: host or cells: COS-7
T1 sequence (P04150 1-777): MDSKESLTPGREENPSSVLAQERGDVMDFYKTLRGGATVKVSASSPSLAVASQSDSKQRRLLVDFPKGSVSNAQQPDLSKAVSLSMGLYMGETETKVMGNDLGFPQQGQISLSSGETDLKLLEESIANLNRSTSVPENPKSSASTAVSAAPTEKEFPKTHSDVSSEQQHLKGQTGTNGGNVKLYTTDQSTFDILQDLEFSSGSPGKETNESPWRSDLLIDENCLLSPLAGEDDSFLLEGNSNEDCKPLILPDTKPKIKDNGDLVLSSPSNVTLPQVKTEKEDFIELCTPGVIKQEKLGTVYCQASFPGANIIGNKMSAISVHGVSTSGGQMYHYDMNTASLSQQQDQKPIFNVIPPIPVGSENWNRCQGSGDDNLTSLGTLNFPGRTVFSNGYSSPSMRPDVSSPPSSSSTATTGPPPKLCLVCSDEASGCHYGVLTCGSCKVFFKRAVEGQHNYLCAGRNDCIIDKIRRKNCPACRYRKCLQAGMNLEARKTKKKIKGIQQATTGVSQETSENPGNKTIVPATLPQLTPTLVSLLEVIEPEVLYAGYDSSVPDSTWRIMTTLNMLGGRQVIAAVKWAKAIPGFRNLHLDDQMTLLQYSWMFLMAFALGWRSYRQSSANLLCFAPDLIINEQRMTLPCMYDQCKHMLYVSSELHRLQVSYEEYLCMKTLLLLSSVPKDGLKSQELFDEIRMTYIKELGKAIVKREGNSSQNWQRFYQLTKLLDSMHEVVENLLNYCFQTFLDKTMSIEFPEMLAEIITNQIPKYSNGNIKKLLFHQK
Experimental: Cell transfections and assays of GR mediated gene activation. COS-7 cells were maintained in culture in DMEM-10% bovine calf serum. […] Cells were plated at 10^6 cells per 10 cm plate. Twenty-four hours later, the cells were transfected with 500 ng pRShGrα, a GR expression vector (obtained from the Salk Institute, La Jolla, CA) and 10 µg of pMMTV-luciferase, a synthetic reporter gene. However, other expression vectors and synthetic reporter genes available to those of skill in the art may be used for transfection. The vector pMMTV-luciferase contains the luciferase gene under regulatory control of glucocorticoid-inducible elements in the MMTV-long terminal repeat. Cells were transfected using the calcium-phosphate precipitation technique (mammalian transfection kit, Stratagene, La Jolla, CA). […] Twenty-four hours later, the cells were washed, harvested, and lysates prepared by three cycles of freeze/thawing. The lysates were cleared by centrifugation at 12,000 x g for 5 minutes; aliquots were assayed for protein content and equal amounts of proteins were used for luciferase assays.
COS-7 cells were transfected with a human GR expression vector and the MMTV-luciferase reporter gene construct. A parallel set of plates was transfected with the constitutively active RSV-luciferase construct. […] Cells were lysed after 24 hours and assayed for luciferase activity.

[2] = in vitro; assay type: cell-based
Experimental: The cells were assayed for cell viability by using a cytoflowmeter (FACSCAN) after the cells were stained with propidium iodine. […]

[3] = system: IDH4 cells; assay: Dexamethasone dependent growth of IDH4 cells (3H-thymidine); assay type: cell-based, human; conditions: for dexamethasone dependent growth of IDH4 cells: 72 hours; for [3H]-thymidine incorporation of IDH4 cells: without stimulation 16,391
Experimental: IDH4 cells, that express endogenous glucocorticoid receptors, were produced by transfecting human fibroblasts with a plasmid containing the MMTV-long terminal repeat driving the SV40 large T antigen. Since extended growth of these cells is dependent on expression of the large T antigen, these cells require exogenous glucocorticoid to maintain proliferation.
[^3H]-Thymidine was present for the last 16 h. Data represent the mean % inhibition of [^3H]-thymidine incorporation of three replicate determinations of three separate experiments.

[4] = system: U937 cells; assay: PGE2 production by LPS-activated U937 cells; assay type: cell-based, human
Description: This reflected marked suppression of the induction ofmRNA for cycloxygenase -2 (COX-2). […] This may contribute to its capacity to suppress autoimmune and inflammatory diseases.

[5] = system: cyclooxygenase 2 (COX-2); assay: LPS (endotoxin) induced PGE2 production by monocytes; assay type: cell-based, human; conditions: LPS 10 µg/ml, 18 hours
Experimental: After 18 hours of incubation, cell-free supernatants were collected and assayed for PGE2 content with a radioimmunoassay kit (Amersham), as described by the manufacturer. […] Human monocytes produce prostaglandinE2 (PGE2) when stimulated with bacterial endotoxin.

[6] = system: IL-2R; assay: IL-2R expression by PHA-activated T cells (924); assay type: cell-based; conditions: 500 ng/ml
Description: There was no effect of "924" on IL-2R expression by PHA-activated T cells.

[7] = system: PHA-stimulated T cells; assay: PHA-induced T cell proliferation (924 / wilforonide); assay type: cell-based; conditions: PHA 0.5 µg/ml, 3 days
Description: The molecular groups responsible for the immune suppressive function of these compounds are unknown, however, the core structure of diterpenoids which may be related to their activity consists of an α-β-unsaturated 5 element lactone which can be identified by Kedde reagents. HPLC was used to fractionate the ethyl acetate extract of TwHF and the Kedde reagents were employed to trace the fractions. Then, the effect of selected fractions on the in vitro IL-2 production and [^3H]-thymidine incorporation by PHA-activated T cells was determined. Fractions that inhibit these T cell functions were selected and the chromatographic pattern was identified with HPLC. One fraction was further purified with HPLC and crystallized repeatedly; a pure, crystallized compound was obtained and designated "924".
[^3H]-thymidine was added for the last 14 hours of culture. Each concentration was run in quadruplicate (4 times) and the results for each concentration averaged to provide a mean. The mean cpm x 10^3 values were combined and expressed as a percent of T cell inhibition.

[8] = system: T cells; assay: Antigen (SK)-induced T cell proliferation (wilforonide); assay type: cell-based
Experimental: T cells were cultured with or without SK (1 ng/ml) or SK + IL-2 (50 u/ml) or SK + PMA (0.2 ng/ml) in the presence or absence of the following concentrations of wilforonide: 10 ng/ml, 50 ng/ml, 100 ng/ml, 500 ng/ml or 1,000 ng/ml. The cells were allowed to culture for five days. The cultures were pulsed with [^3H]-thymidine for the last 24 hours of culture. […] ID50 were calculated based on the regression formula by using the fx-3600 calculator. T cells cultured with SK or SK + IL-2 or SK + PMA gave cpm of 1.87 x 10^3, 4.99 x 10^3 and 6.67 x 10^3, respectively.

[9] = system: IL-2; assay: PHA-induced IL-2 production (wilforonide, CTLL-2 readout); assay type: cell-based; conditions: PHA 1 µg/ml, overnight
Experimental: The effects of wilforonide on IL-2 production was also examined. T cells were cultured with or without PHA(1 microgram/ml) in the presence or absence of 0 (control), 10 ng/ml, 50 ng/ml, 100 ng/ml or 200 ng/ml wilforonide overnight. Cell-free supernatants were diluted 1 to 80 and the IL-2 content assayed with CTLL-2 cells.

[10] = Solubility of 924; assay type: physicochemical; conditions: ethanol and chloroform
Experimental: The dried woody skinned part of the root of TwHF was extracted with ethanol. The solution was concentrated at reduced pressure, and the residue was dissolved in ethyl acetate. This solution was passed through Al2O3 with ethanol as an eluent. The eluate was evaporated and the residue chromatographed on silica gel with chloroform, chloroform-ether and ethyl acetate as successive eluent. The fractions eluted with chloroform-ether were purified on a preparative HPLC column packed with Nova-Pak C18 and equipped with a 214 detector. Methanol-water was the mobile phase. A fraction having positive reaction to Kedde reagent was collected and extracted with chloroform. The chloroform solution was evaporated to dryness and the residue crystallized in dichloromethane-hexane to yield 924.

[11] = system: PHA-stimulated T cells; assay: Viability of PHA-stimulated T cells (924); assay type: cell-based
Experimental: A 924 fraction concentration of 1,000 ng/ml was only slightly more toxic to cell viability as compared to the 0 ng/ml dose (see FIG. 20D, 0 ng/ml = 22% of control; 1,000 ng/ml fraction 924 = […] of control cell viability).

Compound: CC(C)[C@]12O[C@H]1[C@@H]1O[C@]13[C@]1(O[C@H]1C[C@H]1C4=C(CC[C@@]13C)C(=O)OC4)[C@@H]2O [triptolide]
- more potent at inhibition of MMTV-luciferase induction than at binding inhibition ([1]; compared with GR ligand binding inhibition): more than an order of magnitude
- GR-mediated activation of target gene (MMTV-luciferase) [1]: inhibited
- viability at 72 hr, 0.1 ng/ml [2]: 91.7%
- viability at 72 hr, 10 ng/ml [2]: 35.8%

Compound: CC(C)[C@]12O[C@H]1[C@@H]1O[C@]13[C@]1(O[C@H]1C[C@H]1C4=C(C(=O)OC4)[C@@H](O)C[C@@]13C)[C@@H]2O [tripdiolide]
- dexamethasone dependent growth of IDH4 cells [3]: inhibited
- PGE2 production by LPS-activated U937 cells that do not express COX-2 [4]: had effect
- GR-mediated activation of target gene (MMTV-luciferase) [1]: inhibited
- LPS / endotoxin induced PGE2 production by monocytes [5]: inhibited

Compound: C[C@]12CCC3=C(COC3=O)[C@@H]1CCC(=O)C2 (relative stereo) [wilforonide, naphtho-[1,2-c] furan-3,7(1H,5H)-dione, 4,5a,6,8,9,9a-hexahydro-5a-methyl-(5aR-trans)-]
- IL-2R expression by PHA-activated T cells [6]: did not affect
- ID50, PHA-induced T cell proliferation [7]: 0.3913 µg/mL (≈ 1.78 µM)
- cpm x 10^3 (experiments 1.-4.) ([7]; Wilforonide 50 ng/ml): 57.0 cpm x 10^3
- ID50, antigen-induced T cell proliferation ([8]; SK): 0.12712 µg/mL (≈ 0.577 µM)
- ID50, antigen-induced T cell proliferation ([8]; SK+IL-2): 0.476 µg/mL (≈ 2.16 µM)
- ID50, antigen-induced T cell proliferation ([8]; SK+PMA): 0.613 µg/mL (≈ 2.78 µM)
- ID50, PHA-induced IL-2 production [9]: 0.04211 µg/mL (≈ 0.191 µM)
- solubility [10]: soluble
- viability of PHA-stimulated T cells ([11]; 1 ng/ml up to 1000 ng/ml): did not affect
- cell viability ([11]; 1,000 ng/ml): 35 % of control

Compound: C[C@@H]1C[C@H]2[C@@H]3CCC4=CC(=O)C=C[C@]4(C)[C@@]3(F)[C@@H](O)C[C@]2(C)[C@@]1(O)C(=O)CO [dexamethasone]
- [3H]-thymidine incorporation of IDH4 cells ([3]; dexamethasone 1 nM): 35,554 cpm
- [3H]-thymidine incorporation of IDH4 cells ([3]; dexamethasone 10 nM): 52,937 cpm
- [3H]-thymidine incorporation of IDH4 cells ([3]; dexamethasone 100 nM): 105,357 cpm
- [3H]-thymidine incorporation of IDH4 cells ([3]; dexamethasone 1,000 nM): 96,677 cpm

Compound: CC(C)c1ccc2c(c1O)CC[C@H]1C3=C(CC[C@]21C)C(=O)OC3 [triptophenolide]
- dexamethasone dependent growth of IDH4 cells [3]: less active
- GR-mediated activation of target gene (MMTV-luciferase) [1]: far less potent
